Read-outs that look alike come from different tables or passages of the source.
What was measured:
[1] = molecular target: Lucilia cuprina LcαE7 (esterase E3) gene product, malathion resistant allele, Trp to Leu at position 251 (Lucilia cuprina, UniProt Q25252, W251L); experiment: chlorfenvinphos hydrolysis, expressed malathion resistant LcαE7 product; assay type: biochemical; settings: 75 μM CVP
Description: The malathion resistant Lcα7 full-length cDNA was cloned into the baculovirus transfer vector, Bacpac 6 (Clonetech) 3′ of the polyhedrin promoter. Transfections were conducted using a lipofection method with DOTAP (Boehringer Mannheim) as per King and Possee (The Baculovirus Expression System: A Laboratory Guide, Chapman & Hall, London, 1992). One μg of DNA of each of the resulting constructs together with 200 ng of Bacpac 6 baculovirus DNA (Clonetech), linearised by digestion with the restriction enzyme BSU 36I (Promega), was incubated in a solution of HBS (hepes buffered saline) containing 15% DOTAP (Boehringer Mannheim) in a polystyrene container at room temperature for 10 minutes. The solution was then used to transfect a single well of a six well tissue culture plate pre-seeded 2 hrs previously with 10^4 Sf9 (Spodoptera frugiperda) cells in 1.5 mls Grace's medium (King and Possee, The Baculovirus Expression System: A Laboratory Guide, Chapman & Hall, London, 1992). After 12 hours, the medium was replaced with 3 mls of Grace's medium containing 10% fetal calf serum. Construct plus DOTAP, linearised virus plus DOTAP and DOTAP only controls were conducted in parallel with transfections. The transfections were harvested 4–5 days after infection and the cells isolated by centrifugation at 500 g for 5 minutes. […]

[2] = test system: Lucilia cuprina LcαE7 (esterase E3) gene product, OP-susceptible allele (LS2); settings: described in PCT/AU 95/00016; cited from earlier work
[3] = test system: MCE encoded by the malathion resistant allele of LcαE7; experiment: Sensitivity of MCE activity to TPP (titration/preincubation of cell extract); assay type: biochemical, L. cuprina
[4] = molecular target: T1, Lucilia cuprina LcαE7 (esterase E3) gene product, malathion resistant allele (strain RM-8), Trp to Leu at position 251 (Lucilia cuprina, UniProt Q25252, W251L); experiment: sensitivity of MCE activity to TPP, expressed malathion resistant LcαE7 product; assay type: biochemical; settings: TPP 8×10^−8M, preincubation 15, 30 or 45 minutes
[5] = test system: malathion resistant strains of M. domestica, C. putoria and L. cuprina; settings: literature, cited from earlier work
[6] = test system: MCE activity associated with malathion resistance in M. domestica, C. putoria and L. cuprina; settings: literature; cited from earlier work
[7] = molecular target: Lucilia cuprina LcαE7 (esterase E3) gene product, malathion susceptible allele (strain LS2; clone Lc743), Trp at position 251 (Lucilia cuprina, UniProt Q25252); experiment: malathion hydrolysis (MCE activity), expressed malathion susceptible LcαE7 product; assay type: biochemical; settings: malathion 2.5-100 μM, 25° C., pH 7.0
[8] = molecular target: T1, Lucilia cuprina LcαE7 (esterase E3) gene product, malathion resistant allele (strain RM-8), Trp to Leu at position 251; experiment: malathion hydrolysis (MCE activity), expressed malathion resistant LcαE7 product; assay type: biochemical; settings: malathion 2.5-100 μM, 25° C., pH 7.0
[9] = test system: malathion carboxylesterase (MCE) purified from malathion resistant strains of L. cuprina; settings: cited from earlier work
[10] = test system: malathion carboxylesterase (MCE) purified from malathion resistant strains of L. cuprina; settings: purified MCE (Whyard and Walker 1994); cited from earlier work
[11] = test system: malathion carboxylesterase (MCE) purified from malathion resistant strains of L. cuprina; settings: purified MCE (Whyard and Walker 1994); cited from earlier work; remark: listed apart in the source
CC(=O)Oc1cccc2ccccc12 = experiment: α-naphthyl acetate hydrolysis, expressed malathion resistant LcαE7 product; assay type: biochemical, Lucilia cuprina; settings: other: α-NA 6-200 μM, 25° C., pH 8.0
Description: (§1) The malathion resistant Lcα7 full-length cDNA was cloned into the baculovirus transfer vector, Bacpac 6 (Clonetech) 3′ of the polyhedrin promoter. Transfections were conducted using a lipofection method with DOTAP (Boehringer Mannheim) as per King and Possee (The Baculovirus Expression System: A Laboratory Guide, Chapman & Hall, London, 1992). One μg of DNA of each of the resulting constructs together with 200 ng of Bacpac 6 baculovirus DNA (Clonetech), linearised by digestion with the restriction enzyme BSU 36I (Promega), was incubated in a solution of HBS (hepes buffered saline) containing 15% DOTAP (Boehringer Mannheim) in a polystyrene container at room temperature for 10 minutes. […]
(§2) The initial rates of reactions between cell extracts containing the expressed products of the malathion resistant and susceptible LcαE7 alleles and α-naphthyl acetate (α-NA) were determined at 25° C. using a recording spectrophotometer and the method of Mastrapaolo and Yourno (Analytical Biochemistry 115: 188, 1981). 6–200 μM α-NA dissolved in 10 μl of 2-methoxyethanol was added to 0.1 M Tris-HCl pH 8.0 (980 μl) in a quartz cuvette. α-Naphthyl acetate is slowly hydrolysed in water so a background rate was recorded before starting the enzymic reaction by the addition of 10 μl of diluted cell extract. […]
(§3) Km and Vmax were calculated for both enzymes. […]

CCCC(=O)Oc1cccc2ccccc12 = experiment: α-naphthyl butyrate hydrolysis, expressed malathion resistant LcαE7 product; assay type: biochemical, Lucilia cuprina; settings: other: α-NB 6-200 μM, 25° C., pH 8.0
Description: as §1, §2, §3

[12] = purified MCE (Whyard et al. 1994)

Sequence of Lucilia cuprina LcαE7 (esterase E3) gene product, malathion susceptible allele (strain LS2; clone Lc743), Trp at position 251 (Q25252 entry or part of it): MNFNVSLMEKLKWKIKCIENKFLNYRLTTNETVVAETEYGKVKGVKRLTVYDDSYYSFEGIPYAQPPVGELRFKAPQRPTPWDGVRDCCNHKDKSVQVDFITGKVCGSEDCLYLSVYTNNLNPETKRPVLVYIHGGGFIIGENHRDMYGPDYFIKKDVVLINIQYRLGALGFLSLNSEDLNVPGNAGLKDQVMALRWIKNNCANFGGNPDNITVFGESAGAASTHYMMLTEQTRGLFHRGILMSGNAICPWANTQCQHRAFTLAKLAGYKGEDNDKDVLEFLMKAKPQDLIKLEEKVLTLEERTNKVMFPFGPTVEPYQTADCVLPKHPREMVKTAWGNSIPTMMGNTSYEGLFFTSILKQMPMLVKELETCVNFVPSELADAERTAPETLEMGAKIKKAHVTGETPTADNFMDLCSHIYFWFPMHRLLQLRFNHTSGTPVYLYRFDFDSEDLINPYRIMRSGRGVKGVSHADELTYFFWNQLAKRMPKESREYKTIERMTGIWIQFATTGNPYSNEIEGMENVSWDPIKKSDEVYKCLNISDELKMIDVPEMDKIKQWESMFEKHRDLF

For `CCOP(=O)(OCC)OC(=CCl)c1ccc(Cl)cc1Cl` [CVP, chlorfenvinphos], the “turnover, fold less than that of the diazinon resistant (RM2-6) gene product” value [1] is given as “approximately 50 fold”, the “turnover (hydrolytic activity)” value ([1]; 30° C., pH 7.0) is given as “about 1.2 hour^−1” and the “CVP / diethyl OP hydrolytic activity” value [2] is given as “undetectable”.
For `O=P(Oc1ccccc1)(Oc1ccccc1)Oc1ccccc1` [TPP, triphenylphosphate], the “turnover of TPP by MCE” value ([3]; TPP 8×10^−8M preincubated 15, 30 or 45 minutes with cell extract) was “not being turned over”, the “concentration giving stoichiometric inhibition of MCE activity” value ([3]; expressed product of malathion resistant LcαE7 allele, substrate malathion) was “below 10^−7 M” and the “residual MCE activity at different preincubation times / completeness of inhibition by TPP” value [4] was “no significant difference between the residual MCE activity at each of the preincubation times”. For the same compound, the “turnover of TPP by MCE” value [4] was “TPP was not being turned over by MCE”, the synergism of malathion ([5]; listed as triphenylphosphate) was “best synergists” and the synergism of malathion [5] was “potent synergism of malathion by TPP”. For the same compound, the “sensitivity of MCE activity to inhibition by TPP” value [6] was “High sensitivity to inhibition by TPP”.
For `CCOC(=O)CC(SP(=S)(OC)OC)C(=O)OCC` (centres unmarked) [malathion, S-1,2-bis(ethoxycarbonyl)ethyl O,O-dimethyl phosphorodithioate], the Kcat [7] was 1.17 ± 0.183 s⁻¹, the Km [7] was 200 ± 30 µM and the Kcat [8] was 0.717 ± 0.017 s⁻¹. For the same compound, the Km [8] was 21 ± 1 µM, the Kcat ([9]; purified MCE (Whyard and Walker 1994)) was 46±2 per min and the Km [9, 12] was 11 ± 0.4 µM. The Vmax [9, 12] was 775±28 nmol malathion/min/mg and the “kcat (turnover number)” value [9, 12] was 0.767 s⁻¹.
For `CC(=O)Oc1cccc2ccccc12` [α-naphthyl acetate], the Kcat [10] is listed as 2063 per min and the Km [10] is listed as 167 ± 14 µM.
In the case of `CCCC(=O)Oc1cccc2ccccc12` [α-naphthyl butyrate], the Kcat [11] is listed as 3700 per min and the Km [11] is listed as 39 ± 4 µM.
Work on “Lucilia cuprina LcαE7 (esterase E3) gene product, malathion resistant allele (strain RM-8), Trp to Leu at position 251 (Lucilia cuprina; W251L)” yielded a Km (CC(=O)Oc1cccc2ccccc12) of 150 ± 50 µM, a kcat (CC(=O)Oc1cccc2ccccc12) of 37.8 ± 0.5 s⁻¹ and a Km (CCCC(=O)Oc1cccc2ccccc12) of 29 ± 4 µM. The kcat (CCCC(=O)Oc1cccc2ccccc12) was 150 ± 6.67 s⁻¹.
